Test results from patent publication EP1016409B1, “FREEZE DRIED COMPOSITION COMPRISING GLYCOSPHINGOLIPIDS” (KIRIN BEER KABUSHIKI KAISHA, priority 1997, dated 1998).

Key:
Format in all cases: physicochemical
[1] = Lyophilized preparations with Polysorbate 20 alone: re-solubility immediately after lyophilization; conditions: KRN7000 200 µg/ml, no excipient, reconstituted in 1 ml distilled water for injection
Experimental: Next, 20 mg of the active component (KRN7000) was weighed and stirred in 100 ml of the Polysorbate solutions having a variety of concentrations in a heated bath to 80°C for 20 minutes in order to form a solution. After cooling with running water, the mixture was filtered through a 0.22 µm filter, and transparent colorless glass vials having a volume of 5 ml were charged with a 1 ml portion of each of a variety of solutions and subjected to lyophilizaiton. Lyophilization was carried out under the condition of preliminary freezing at -40°C for 2 hours and drying at -20°C for 24 hours, 10°C for 12 hours, and finally at 25°C for 5 hours to give the lyophilized product. The degree of vacuum was set at 0.1 Torr or less during drying step.
After the lyophilization step, the lyophilized composition was reconstituted in 1 ml of distilled water for injection, left standing for 30 minutes, and solubility was judged when the foams generated on reconstituiton disappeared.
The solubility was judged by cleaning the outside of the vial and placing it beneath the white light source in a darkroom for observation with naked eye at the position of a luminous intensity of about 5,000 lux. When the sample was clear with no precipitates, it was judged that the active component was dissolved.

[2] = Optimal amount of Polysorbate 20: solubility of the solution after storage, by naked eye; parameters: key: + not dissolved (or deposited); - dissolved; conditions: KRN7000 200 µg/ml, 25°C
Experimental: Next, 20 mg of the active component (KRN7000) was weighed and stirred in 100 ml of the Polysorbate solutions having a variety of concentrations in a heated bath at 80°C for 20 minutes in order to form a solution. After cooling with running water, the mixture was filtered through a 0.22 µm filter, and transparent colorless glass vials having a volume of 5 ml were charged with a 2 ml portion of each of a variety of solutions and sealed up.
These samples were stored at 25°C for 2 weeks, and judged of their solubility. The samples judged in solution were further stored, and judged again of their solubility after 1 month.
The solubility was judged by cleaning the outside of the vial and placing it beneath the white light source in the darkroom for observation with naked eye at the position of a luminous intensity of about 5,000 lux. When the sample was clear with no precipitates, it was judged that the active component was dissolved.

[3] = Cooling condition after dissolution with heating 1: turbidity; conditions: Polysorbate 20 0.5%, histidine 0.75%, sucrose 5.6%, cooling 73°C → 30°C; for Turbidity After filtration / Turbidity Before filtration: 800 mg KRN7000 in 4 liters; for Turbidity After filtration: 0.22 µm filter; for Turbidity After filtration / Turbidity Lyophilized composition: kaolin 1 µg/ml = turbidity 1.00; for Turbidity Before filtration: kaolin 1 µg/ml = turbidity 1.00, 660 nm; for Turbidity Lyophilized composition: reconstituted after 3 hours at room temperature (25°C)
Experimental: First, Polysorbate 20 was dissolved in distilled water in a concentration of 0.5%, histidine in a concentration of 0.75%, and sucrose in a concentration of 5.6%. Next, 800 mg of the active component (KRN7000) was weighed and stirred in 4 liters of the solvent under heating at 73°C for 30 minutes in order to form a solution. After dissolution, the mixture was divided into about 500 ml portions, cooled with stirring from 73°C to 30°C (6 minutes), from 73°C to 30°C (23 minutes), and from 73°C to 30°C (120 minutes). After cooling, the mixtures were filtered through a 0.22 µm filter, and transparent colorless glass vials having a volume of 5 ml were charged with a 1 ml portion of each of a variety of solutions thus obtained and subjected to lyophilization. Lyophilization was carried out under the condition of preliminary freezing at -50°C for 5 hours and drying at -15°C for 48 hours, 10°C for 12 hours, and finally at 25°C for 7 hours to give the lyophilized product. The degree of vacuum was set at 0.1 Torr or less during drying step.
The turbidity of the solutions prepared respective cooling conditions before or after the filtration step, and the lyophilized composition thus obtained which were reconstituted after leaving standing at room temperature (25°C) for 3 hours from the lyophilization step, were measured. In this connection, the lyophilized composition was reconstituted in 1 ml of distilled water for injection, left standing for 30 minutes, and turbidity was measured when the foams generated on reconstitution disappeared.
The turbidity was measured by the following method: various dilutions including 50-fold dilution (kaolin 2 µg/ml, turbidity 2.00), 100-fold dilution (kaolin 1 µg/ml, turbidity 1.00), and 200-fold dilution (kaolin 0.5 µg/ml, turbidity 0.50) were prepared by diluting the turbidity standard (kaolin, […]) with distilled water. A calibration curve was made by measuring the absorbance at a wave length of 660 nm with a control of distilled water and the various dilutions in a spectrophotometer (HITACHI U-3210). Next, the absorbance of the solutions was measured under the same condition as above to calculate the turbidity of the solutions.

CCCCCCCCCCCCCCCCCCCCCCCCCC(=O)N[C@@H](CO[C@H]1O[C@H](CO)[C@H](O)[C@H](O)[C@H]1O)[C@H](O)[C@H](O)CCCCCCCCCCCCCC [KRN7000, (2S,3S,4R)-1-(α-D-galactopyranosyloxy)-2-hexacosanoylamino-3,4-octadecanediol]
Re-solubility immediately after lyophilization (by naked eye) ([1]; Polysorbate 20 0.5%): + (+ not dissolved (or deposited)) | Re-solubility immediately after lyophilization (by naked eye) ([1]; Polysorbate 20 1.0%): + (+ not dissolved (or deposited)) | Re-solubility immediately after lyophilization (by naked eye) ([1]; Polysorbate 20 2.0%): + (+ not dissolved (or deposited)) | Variation with the passage of time after storage (by naked eye) ([2]; Polysorbate 20 0.1%, 2 weeks): + | Variation with the passage of time after storage (by naked eye) ([2]; Polysorbate 20 0.2%, 2 weeks): + | Variation with the passage of time after storage (by naked eye) ([2]; Polysorbate 20 0.3%, 1 month): + | Variation with the passage of time after storage (by naked eye) ([2]; Polysorbate 20 0.3%, 2 weeks): - | Variation with the passage of time after storage (by naked eye) ([2]; Polysorbate 20 0.5%, 1 month): + | Variation with the passage of time after storage (by naked eye) ([2]; Polysorbate 20 0.5%, 2 weeks): - | Variation with the passage of time after storage (by naked eye) ([2]; Polysorbate 20 1.0%, 1 month): + | Variation with the passage of time after storage (by naked eye) ([2]; Polysorbate 20 1.0%, 2 weeks): - | Variation with the passage of time after storage (by naked eye) ([2]; Polysorbate 20 2.0%, 1 month): + | Variation with the passage of time after storage (by naked eye) ([2]; Polysorbate 20 2.0%, 2 weeks): - | Variation with the passage of time after storage (by naked eye) ([2]; Polysorbate 20 4.0%, 1 month): + | Variation with the passage of time after storage (by naked eye) ([2]; Polysorbate 20 4.0%, 2 weeks): - | Variation with the passage of time after storage (by naked eye) ([2]; Polysorbate 20 8.0%, 1 month): + | Variation with the passage of time after storage (by naked eye) ([2]; Polysorbate 20 8.0%, 2 weeks): - | Turbidity After filtration ([3]; 6 minutes): 0.13 | Turbidity Before filtration ([3]; 6 minutes): 0.23 | Turbidity After filtration ([3]; 23 minutes): 0.15 | Turbidity Before filtration ([3]; 23 minutes): 0.58 | Turbidity After filtration ([3]; 120 minutes): 0.16 | Turbidity Before filtration ([3]; 120 minutes): 0.64 | Turbidity Lyophilized composition ([3]; 6 minutes): 0.24 | Turbidity Lyophilized composition ([3]; 23 minutes): 0.36 | Turbidity Lyophilized composition ([3]; 120 minutes): 0.36
